PubChem BioAssay AID720512 (Broad Institute, 2013)
Activity calls are given as the source filed them. No rule for the calls is given here.

Each compound was assayed against Toxin B (TcdB) glycohydrolase, Clostridioides difficile 630 (assay: TcdB glycohydrolase inhibitors, dose response, biochemical, cherry-pick, plate reader (AID 720512)). Settings: recombinant TcdB glycohydrolase activity.
`O=C(O)c1ccc(-c2ccc(O)c(F)c2)cc1` was tested, and the AC50 was > 39 µM (inactive).
`c1ccc(OCCSc2nnc3sc4ccccc4n23)cc1` was tested, and the AC50 was > 39 µM (inactive).
For `Oc1ccc(/C=N/N2CCN(Cc3ccccc3)CC2)cc1`, the AC50 was > 39 µM (inactive).
`Cc1ccc2nc(-c3ccc4c(c3)OCCO4)cn2c1` was tested, and the AC50 was > 39 µM (inactive).
With `CC1(C)Cc2c(sc3ncn4c(=S)[nH]nc4c23)CO1` the AC50 was > 39 µM (inactive).
With `CN1c2ccc(-c3ccccc3)cc2[C@@H]2[C@@H](CCN2C(=O)CN2CCOCC2)[C@@H]1CO` the AC50 was > 39 µM (inactive).
For `Cc1cccc(OCCC(=O)NCC(=O)Nc2cccc(C)c2C)c1`, the AC50 was > 39 µM (inactive).
In the case of `C[C@H](CO)N1C[C@H](C)[C@@H](CN(C)C(=O)Nc2ccc(C(F)(F)F)cc2)Oc2c(NS(=O)(=O)c3cccs3)cccc2C1=O`, the AC50 is reported as > 39 µM (inactive).
`COc1cc(/C=C/C(=O)OCC(=O)NC(=O)NC(C)C)ccc1O` was tested, and the AC50 was > 39 µM (inactive).
In the case of `CC(=O)Nc1cccc2cc(O)ccc12`, the AC50 is reported as > 39 µM (inactive).
With `CN(C)CCNc1cccc2sc3ccc(O)cc3c(=O)c12` the AC50 was 12.4 µM.
With `CC(=O)N1CC[C@@H]2[C@@H](CO)N(C)c3ccc(-c4ccccc4)cc3[C@@H]21` the AC50 was > 42 µM (inactive).

Same assay, conditions: recombinant TcdB glycohydrolase activity, at 10 µM (top of the series)
`O=c1c(OC2OC(CO)C(O)C(O)C2O)c(-c2ccc(O)c(O)c2)oc2cc(O)cc(O)c12` (configuration not stated) was tested, and the “activity change, negative = inhibition” value was “inactive”.

Same assay, conditions: recombinant TcdB glycohydrolase activity, at 19.5 µM (top of the series)
For `Oc1ccccc1-c1cnc2cccnn12`, the “activity change, negative = inhibition” value was “inactive”.
With `O=C(NC(=S)Nc1ccc(O)cc1)c1ccccc1Cl` the “activity change, negative = inhibition” value was “inactive”.
`Cc1c(CNC(=O)c2c([N+](=O)[O-])cnn2C)cnn1C` was tested, and the “activity change, negative = inhibition” value was “inactive”.
`CCCCn1c(=S)[nH]c2c(=O)n(C)c(=O)n(C)c21` was tested, and the “activity change, negative = inhibition” value was “inactive”.
In the case of `CCN1/C(=C2\OC(=S)N(C)C2=O)C=Cc2ccccc21`, the “activity change, negative = inhibition” value is reported as “inactive”.
`CC(C)C12NC(=O)NC(=O)N1CCS2` (configuration not stated) was tested, and the “activity change, negative = inhibition” value was “inactive”.
`Cc1nn2cc(-c3cccc(Cl)c3)cnc2c1Br` was tested, and the “activity change, negative = inhibition” value was “inactive”.
With `C=CCNS(=O)(=O)c1nc(C)c(Cl)c(C)c1C#N` the “activity change, negative = inhibition” value was “inactive”.
In the case of `COc1cc(/C=N/NC(=O)C2(O)c3ccccc3-c3ccccc32)ccc1O`, the “activity change, negative = inhibition” value is reported as “inactive”.
With `Cc1c(C(=O)c2ccccc2)c2ccccn2c1CCc1ccccn1` the “activity change, negative = inhibition” value was “inactive”.
With `COc1cccc(C(=O)Nc2ccc3c(c2)C(=O)N(C)[C@@H]2CC[C@H](CC(=O)NCCCN4CCOCC4)O[C@@H]2CO3)c1` the “activity change, negative = inhibition” value was “inactive”.
With `COCCN(C(=O)C(C)C)c1nnc(-c2ccc(C(C)(C)C)cc2)s1` the “activity change, negative = inhibition” value was “inactive”.
In the case of `COc1ccc(/C=C2\CCCCC2=O)cc1`, the “activity change, negative = inhibition” value is reported as “inactive”.
`COc1ccccc1C1=NNC(=NCc2ccccc2)SC1` was tested, and the “activity change, negative = inhibition” value was “inactive”.
In the case of `COC(=O)[C@H]1C[C@@H]1[C@H](NP(=O)(c1ccccc1)c1ccccc1)c1ccccc1`, the “activity change, negative = inhibition” value is reported as “inactive”.
In the case of `COc1cc(/C=N/NC(=O)c2nnn(-c3nonc3N)c2C(C)C)ccc1O`, the “activity change, negative = inhibition” value is reported as “inactive”.
For `CC(=O)C(Sc1nccc(-c2cccs2)n1)C(C)=O`, the “activity change, negative = inhibition” value was “inactive”.
In the case of `Cc1ccnc(N2C(=O)c3ccccc3C2=O)c1`, the “activity change, negative = inhibition” value is reported as “inactive”.
In the case of `Cc1ccc(NNC(=O)c2ccno2)c(C)c1`, the “activity change, negative = inhibition” value is reported as “inactive”.
In the case of `COC(=O)C(C(=O)OC)C(CC(=O)c1ccc(Br)cc1)c1ccccc1` (configuration not stated), the “activity change, negative = inhibition” value is reported as “inactive”.
`O=c1c2ccc(Cl)cc2[nH]c(=S)n1-c1cccnc1` was tested, and the “activity change, negative = inhibition” value was “inactive”.
`CC1CCCN(C(=S)Nc2ccc(F)cc2)C1` (configuration not stated) was tested, and the “activity change, negative = inhibition” value was “inactive”.
In the case of `C=CCN=c1scc(C)n1/N=C/c1ccc(O)c(O)c1`, the “activity change, negative = inhibition” value is reported as “inactive”.
In the case of `CCOc1cc(/C=N/O)ccc1OCc1ccc(C)cc1`, the “activity change, negative = inhibition” value is reported as “inactive”.
With `Cc1cccn2c(=S)[nH]nc12` the “activity change, negative = inhibition” value was “inactive”.
For `COc1ccc(CNCCc2ccc3c(c2)OCO3)cc1Br`, the “activity change, negative = inhibition” value was “inactive”.
With `C/C(=N\NC(=O)CSc1nc2ccccc2c(=O)n1-c1ccccc1C)c1cccs1` the “activity change, negative = inhibition” value was “inactive”.
`Cc1nc2[nH]c(=S)[nH]c2c(=O)[nH]1` was tested, and the “activity change, negative = inhibition” value was “inactive”.
For `Cc1onc(-c2c(F)cccc2Cl)c1C(=O)Nc1nnc(C(F)(F)F)s1`, the “activity change, negative = inhibition” value was “inactive”.
`Cc1cccc(/C=C/c2onc(C)c2S(=O)(=O)N2CCC(C(=O)NC(C)C)CC2)c1` was tested, and the “activity change, negative = inhibition” value was “inactive”.
`O=C(C[C@@H]1C[C@H]2c3cc(NC(=O)c4ccc5c(c4)OCO5)ccc3O[C@H]2[C@H](CO)O1)NCc1cccc(F)c1` was tested, and the “activity change, negative = inhibition” value was “inactive”.
For `Nc1ncnc2[nH]c(=S)[nH]c12`, the “activity change, negative = inhibition” value was “inactive”.
With `COc1ccc(Cl)cc1NC(=S)NC1CCCC1` the “activity change, negative = inhibition” value was “inactive”.
For `CCCNC(=O)C1CC(=O)N(c2ccc(OCC)cc2)C1` (configuration not stated), the “activity change, negative = inhibition” value was “inactive”.
`O=C(C[C@@H]1CC[C@H]2[C@@H](COC[C@@H](O)CN2Cc2ccc(Oc3ccccc3)cc2)O1)Nc1nccs1` was tested, and the “activity change, negative = inhibition” value was “inactive”.
In the case of `CNC(=O)C[C@H]1CC[C@@H]2[C@@H](COc3ccc(NC(=O)c4ccc(OC)cc4)cc3C(=O)N2C)O1`, the “activity change, negative = inhibition” value is reported as “inactive”.
In the case of `CC12CCC3C(=CCc4cc(O)ccc43)C1CC(=NO)C2O` (configuration not stated), the “activity change, negative = inhibition” value is reported as “inactive”.
In the case of `COC(=O)c1ccc(OC(=O)c2ccc(OC)cc2)c(OC)c1`, the “activity change, negative = inhibition” value is reported as “inactive”.
With `Cc1ccc(C(=O)Nc2ccc(N3CCCCC3)cc2)cc1` the “activity change, negative = inhibition” value was “inactive”.
`C[C@H](CO)N1C[C@H](C)[C@@H](CN(C)CC2CCCCC2)Oc2ccc(NC(=O)CCN3CCOCC3)cc2C1=O` was tested, and the “activity change, negative = inhibition” value was “inactive”.
With `Cn1c(=O)c2c(nc(N3CCOCC3)n2CCSc2ncccn2)n(C)c1=O` the “activity change, negative = inhibition” value was “inactive”.
In the case of `COc1cc(/C=N/NC2=NCCCCC2)ccc1O`, the “activity change, negative = inhibition” value is reported as “inactive”.
With `Cc1cccc(/C=C/c2onc(C)c2S(=O)(=O)N2CCC(C(=O)NC(C)(C)C)CC2)c1` the “activity change, negative = inhibition” value was “inactive”.
With `OCC[C@H]1C[C@H](O)[C@@H](O)[C@@]2(Cc3ccccc3CO2)O1` the “activity change, negative = inhibition” value was “inactive”.
In the case of `Cc1cc(C)c(NS(=O)(=O)c2cccc3cccnc23)c(C)c1`, the “activity change, negative = inhibition” value is reported as “inactive”.
For `CCOC(=O)[C@H]1[C@H]2COc3ccc(OC)cc3[C@@H]2N2C(=O)CN(Cc3ccc(Cl)cc3)C(=O)[C@@]12C`, the “activity change, negative = inhibition” value was “inactive”.
In the case of `Cc1ccc(-c2cc(C(=O)NNC(=O)c3csc(N4CCOCC4)n3)c3ccccc3n2)cc1`, the “activity change, negative = inhibition” value is reported as “inactive”.
With `O=C(NCc1ccccc1)C1Cc2c(-c3cccc(F)c3)ccnc2O1` (configuration not stated) the “activity change, negative = inhibition” value was “inactive”.
`O=C(Nc1ccc(N2CCOCC2)c(Cl)c1)c1ccc(F)cc1` was tested, and the “activity change, negative = inhibition” value was “inactive”.
In the case of `COc1ccc(-c2ccc3c(c2)[C@@H]2[C@@H](CCN2C(=O)C2CC2)[C@H](CO)N3C)cc1`, the “activity change, negative = inhibition” value is reported as “inactive”.
For `Oc1ccc(/C=N/Nc2ncnc3nc[nH]c23)cc1`, the “activity change, negative = inhibition” value was “inactive”.
`Cn1ncc(Br)c1C(=O)N/N=C/c1cccc(OC2CSC2)c1` was tested, and the “activity change, negative = inhibition” value was “inactive”.
For `CN1C=CC(=CC=C2C=CC(=O)C=C2)C=C1`, the “activity change, negative = inhibition” value was “inactive”.
`CS(=O)(=O)N1CCc2cc(C(=O)Nc3ccc(O)cc3)ccc21` was tested, and the “activity change, negative = inhibition” value was “inactive”.
In the case of `CCOC(=O)N1CCC(c2cc(=O)n3[nH]c(-c4ccccc4)cc3n2)CC1`, the “activity change, negative = inhibition” value is reported as “inactive”.
In the case of `Cc1ccc(NNC(=O)c2ccno2)cc1Cl`, the “activity change, negative = inhibition” value is reported as “inactive”.
`Cc1nc(-c2ccccn2)nc(SCC(=O)c2ccc(F)cc2)c1Cl` was tested, and the “activity change, negative = inhibition” value was “inactive”.
For `NC(=O)c1ccc2c(=O)c(O)c(-c3cc(Cl)c(N)c(Cl)c3)[nH]c2c1`, the “activity change, negative = inhibition” value was “inactive”.
In the case of `OCC1CCCN(C(=S)Nc2ccc(Nc3ccccc3)cc2)C1` (configuration not stated), the “activity change, negative = inhibition” value is reported as “inactive”.
With `CCN1CCN(S(=O)(=O)c2ccc3[nH]c(=O)oc3c2)CC1` the “activity change, negative = inhibition” value was “inactive”.
For `Cc1c(Cl)cccc1NC(=O)C1Cc2ccccc2CN1C(=O)c1ccccc1` (configuration not stated), the “activity change, negative = inhibition” value was “inactive”.
With `O=C(CSc1nc2ccccc2[nH]1)NC1CCCc2ccccc21` (configuration not stated) the “activity change, negative = inhibition” value was “inactive”.
`Nc1ccc(C(=O)c2ccc3c(c2)OCCO3)cc1N` was tested, and the “activity change, negative = inhibition” value was “inactive”.
For `O=C(COC(=O)c1ccc(F)cc1F)c1ccc[nH]1`, the “activity change, negative = inhibition” value was “inactive”.
For `O=C1Cc2cc(S(=O)(=O)NCc3ccccc3Cl)cc3c2N1CCC3`, the “activity change, negative = inhibition” value was “inactive”.
With `Cc1cc(-c2ccc(NS(=O)(=O)c3ccccc3)c(C)c2)ccc1NS(=O)(=O)c1ccccc1` the “activity change, negative = inhibition” value was “inactive”.
With `CCOc1ccc(C(CC(=O)O)NC(=O)C23CC4CC(CC(C4)C2)C3)cc1OC` (configuration not stated) the “activity change, negative = inhibition” value was “inactive”.
With `CCc1ccc(Nc2n[n+](-c3ccccc3)c(-c3ccc(OC)c(Br)c3)s2)cc1` the “activity change, negative = inhibition” value was “inactive”.
`COc1ccc(/C=C/c2onc(C)c2S(=O)(=O)N2CCC(C(=O)N3CCCCCC3)CC2)cc1` was tested, and the “activity change, negative = inhibition” value was “inactive”.
In the case of `COc1c2ccc(C(=O)NCCCCc3ccccc3)cc2nn1C`, the “activity change, negative = inhibition” value is reported as “inactive”.
`Cc1[nH]c(-c2ccc(F)cc2)cc1C(=O)N1CCN(c2ccccc2)CC1` was tested, and the “activity change, negative = inhibition” value was “inactive”.
With `COc1ccc(CNC(=O)C2=CC(c3ccc(OC)c(OC)c3)=NS(=O)(=O)N2C)cc1` the “activity change, negative = inhibition” value was “inactive”.
In the case of `CC(C)c1cc(CN2CCN(Cc3ccc(F)c(F)c3)C(CCO)C2)[nH]n1` (configuration not stated), the “activity change, negative = inhibition” value is reported as “inactive”.
In the case of `COC(=O)CN1C(C)=Nc2ccc(Br)cc2C1c1ccccc1` (configuration not stated), the “activity change, negative = inhibition” value is reported as “inactive”.
With `O=C(COc1ccc(/C=N/NC(=O)c2ccc(O)cc2)cc1)Nc1cccc([N+](=O)[O-])c1` the “activity change, negative = inhibition” value was “inactive”.
With `O=C(Cc1ccccn1)c1ccncc1` the “activity change, negative = inhibition” value was “inactive”.
In the case of `S=c1nc(-c2ccc(Cl)cc2)[nH][nH]1`, the “activity change, negative = inhibition” value is reported as “inactive”.
`CCc1ccc2oc(-c3cc(N)ccc3Cl)nc2c1` was tested, and the “activity change, negative = inhibition” value was “inactive”.

Same assay, conditions: recombinant TcdB glycohydrolase activity, at 21 µM (top of the series)
In the case of `CN1C(=O)c2cc(NC(=O)Nc3ccccc3Cl)ccc2OC[C@H]2O[C@@H](CC(=O)NCCCN3CCOCC3)CC[C@H]21`, the “activity change, negative = inhibition” value is reported as “inactive”.
